Measured values reported in patent US20240109853A1 (Shanghai Yao Yuan Biotechnology Co., Ltd., priority 2020, published 2024).
pIC50: −log10 of the molar value.

Key:
ALPK1 = ALPK1 (Homo sapiens (Human), UniProt Q96QP1); assay: ALPK1 in vitro kinase assay (HTRF of TIFA phosphorylation); assay type: biochemical
[1] = system: ALPK1-dependent NFκB reporter gene activation in HEK293 cells stably expressing an NF-kB reporter (G9 cells); assay: NFκB gene reporter alkaline phosphatase assay; assay type: cell-based; details: Homo sapiens, HEK293; read-out: NFkB assay IC50
In short: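 Inhibition of ALPK1-driven NF-κB activation: compounds added to reporter-bearing HEK293 (G9) cells 30 min before the agonist D-glycero-D-manno-6-fluoro-heptose-1β-S-ADP. Secreted phosphatase detected by pNPP colorimetry, with IC50 derived by logistic curve fitting.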

ALPK1, sequence (Q96QP1 whole entry): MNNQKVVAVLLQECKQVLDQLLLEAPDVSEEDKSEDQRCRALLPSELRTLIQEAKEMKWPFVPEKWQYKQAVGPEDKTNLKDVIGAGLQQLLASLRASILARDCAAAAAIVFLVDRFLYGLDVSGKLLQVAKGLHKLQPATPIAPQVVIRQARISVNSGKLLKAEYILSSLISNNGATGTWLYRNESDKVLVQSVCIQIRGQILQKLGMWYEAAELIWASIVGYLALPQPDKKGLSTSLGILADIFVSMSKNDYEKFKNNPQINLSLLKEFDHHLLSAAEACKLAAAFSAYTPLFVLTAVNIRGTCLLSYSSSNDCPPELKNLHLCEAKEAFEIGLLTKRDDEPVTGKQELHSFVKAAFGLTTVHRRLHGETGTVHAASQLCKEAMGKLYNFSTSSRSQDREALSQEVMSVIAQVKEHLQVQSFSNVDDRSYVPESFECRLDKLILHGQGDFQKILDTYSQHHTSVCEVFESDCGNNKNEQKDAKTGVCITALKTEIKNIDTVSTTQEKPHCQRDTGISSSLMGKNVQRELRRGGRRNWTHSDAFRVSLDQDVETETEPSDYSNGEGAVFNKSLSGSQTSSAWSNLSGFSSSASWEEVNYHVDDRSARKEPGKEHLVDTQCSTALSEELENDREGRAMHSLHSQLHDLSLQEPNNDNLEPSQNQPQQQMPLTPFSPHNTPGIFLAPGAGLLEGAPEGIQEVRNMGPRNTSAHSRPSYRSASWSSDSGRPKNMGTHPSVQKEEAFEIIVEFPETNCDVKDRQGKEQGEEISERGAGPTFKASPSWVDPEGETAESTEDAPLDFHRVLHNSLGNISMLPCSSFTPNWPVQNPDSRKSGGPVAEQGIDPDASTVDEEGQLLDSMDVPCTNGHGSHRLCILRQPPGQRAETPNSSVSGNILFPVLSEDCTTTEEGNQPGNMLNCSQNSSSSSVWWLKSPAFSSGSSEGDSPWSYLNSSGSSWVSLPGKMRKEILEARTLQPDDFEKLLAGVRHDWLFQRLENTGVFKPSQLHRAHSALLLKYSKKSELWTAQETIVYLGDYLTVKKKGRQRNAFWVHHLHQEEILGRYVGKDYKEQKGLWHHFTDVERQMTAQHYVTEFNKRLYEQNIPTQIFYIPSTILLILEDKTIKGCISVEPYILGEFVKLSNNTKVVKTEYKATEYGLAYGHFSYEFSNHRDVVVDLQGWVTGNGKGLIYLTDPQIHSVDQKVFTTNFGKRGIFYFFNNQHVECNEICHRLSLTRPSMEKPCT

Compound	pIC50 (ALPK1)	pIC50 [1]
COc1ncc(CNC(=O)Nc2nc(C(C)(C)c3ccc(Br)cc3)cs2)cn1 [Example A080, 1-(4-(2-(4-bromophenyl)propan-2-yl)thiazol-2-yl)-3-((2-methoxypyrimidin-5-yl)methyl)urea]	6.76	4.88
C#C[C@@](C)(c1ccc(F)cc1)c1csc(NC(=O)NCCO)n1 [Example A283, 1-(4-(2-(4-fluorophenyl)but-3-yn-2-yl)thiazol-2-yl)-3-(2-hydroxyethyl)urea]	6.26	5.77
COc1ccc(C(C)(C)c2csc(NC(=O)NC(C)c3cc(F)c(N4CCNCC4)c(F)c3)n2)cc1 (centres unmarked) [Example A152, 1-(1-(3,5-difluoro-4-(piperazin-1-yl)phenyl)ethyl)-3-(4-(2-(4-methoxyphenyl)propan-2-yl)thiazol-2-yl)urea]	7.26	6.46
COc1ccc(C(C)(C)c2csc(NC(=O)NCc3ccc(C(=O)NC4CCN(C)CC4)nc3)n2)cc1 [Example A120, 5-((3-(4-(2-(4-methoxyphenyl)propan-2-yl)thiazol-2-yl)ureido)methyl)-N-(1-methylpiperidin-4-yl)picolinamide]	7.28	6.00
COc1ccc(C(C)(C)c2csc(NC(=O)NCCCN(C)C)n2)cc1 [Example A145, 1-(3-(dimethylamino)propyl)-3-(4-(2-(4-methoxyphenyl)propan-2-yl)thiazol-2-yl)urea]	6.67	5.35
C#CC(C)(c1ccc(Cl)cc1)c1csc(NC(=O)N2CCNCC2)n1 (centres unmarked) [Example A308, N-(4-(2-(4-chlorophenyl)but-3-yn-2-yl)thiazol-2-yl)piperazine-1-carboxamide]	5.81	5.27
CC(C)(c1ccc(Br)cc1)c1csc(NC(=O)NCc2ccc(N3CCNCC3)c(N)c2)n1 [Example A098, 1-(3-amino-4-(piperazin-1-yl)benzyl)-3-(4-(2-(4-bromophenyl)propan-2-yl)thiazol-2-yl)urea]	7.51	5.97
COCCCNC(=O)Nc1nc(C(C)(C)c2ccc(OC)cc2)cs1 [Example A111, 1-(4-(2-(4-methoxyphenyl)propan-2-yl)thiazol-2-yl)-3-(3-methoxypropyl)urea]	6.90	5.91
C#C[C@](C)(c1ccc(Cl)cc1)c1csc(NC(=O)N2CC(CO)C2)n1 [Example A257, (R)-N-(4-(2-(4-chlorophenyl)but-3-yn-2-yl)thiazol-2-yl)-3-(hydroxymethyl)azetidine-1-carboxamide]	5.81	5.70
CC(C)(c1ccc(Br)cc1)c1csc(NC(=O)NCc2ccc(N3CCC(N)C3)cc2)n1 (centres unmarked) [Example A032, 1-(4-(3-aminopyrrolidin-1-yl)benzyl)-3-(4-(2-(4-bromophenyl)propan-2-yl)thiazol-2-yl)urea]	6.54	6.24
Cc1ccc(C(C)(C)c2csc(NC(=O)NCc3ccc(N4CCNCC4)cc3)n2)cc1 [Example A075, 1-(4-(piperazin-1-yl)benzyl)-3-(4-(2-(p-tolyl)propan-2-yl)thiazol-2-yl)urea]	7.60	6.57
CC(C)(c1ccc(Br)c(F)c1)c1csc(NC(=O)NCc2cnc(N3CCNCC3)nc2)n1 [Example A196, 1-(4-(2-(4-bromo-3-fluorophenyl)propan-2-yl)thiazol-2-yl)-3-((2-(piperazin-1-yl)pyrimidin-5-yl)methyl)urea]	7.12	5.48
CNS(=O)(=O)[C@H]1C[C@H](CNC(=O)Nc2nc(C(C)(C)c3ccc(OC)cc3)cs2)C1 [Example A150, rac-(1r,3r)-3-((3-(4-(2-(4-methoxyphenyl)propan-2-yl)thiazol-2-yl)ureido)methyl)-N-methylcyclobutane-1-sulfonamide]	7.60	5.85
Cc1sc(NC(=O)NCc2ccc(N3CCNCC3)cc2)nc1C(C)(C)c1ccc(Br)cc1 [Example A030, 1-(4-(2-(4-bromophenyl)propan-2-yl)-5-methylthiazol-2-yl)-3-(4-(piperazin-1-yl)benzyl)urea]	6.63	5.39
COc1ccc(C(C)(C)c2csc(NC(=O)NCc3cnc(N4CCN(CCO)CC4)nc3)n2)cc1 [Example A208, 1-((2-(4-(2-hydroxyethyl)piperazin-1-yl)pyrimidin-5-yl)methyl)-3-(4-(2-(4-methoxyphenyl)propan-2-yl)thiazol-2-yl)urea]	7.11	6.12
C#CC(C)(c1ccc(Cl)cc1)c1csc(NC(=O)NO)n1 (centres unmarked) [Example A271, 1-(4-(2-(4-chlorophenyl)but-3-yn-2-yl)thiazol-2-yl)-3-hydroxyurea]	6.31	6.14
C#CC(C)(c1ccc(Br)cc1)c1csc(NC(N)=O)n1 (stereo in doubt) [Example A163, (S)-1-(4-(2-(4-bromophenyl)but-3-yn-2-yl)thiazol-2-yl)urea]	8.40	6.46

Compound	pIC50 (ALPK1)	pIC50 [1]
CNS(=O)(=O)CCCNC(=O)Nc1nc(C(C)(C)c2ccc(OC)cc2)cs1 [Example A148, 3-(3-(4-(2-(4-methoxyphenyl)propan-2-yl)thiazol-2-yl)ureido)-N-methylpropane-1-sulfonamide]	7.35	6.07
C#CC(C)(c1ccc(Br)cc1)c1csc(NC(=O)N2CC(CO)C2)n1 (centres unmarked) [Example A165, N-(4-(2-(4-bromophenyl)but-3-yn-2-yl)thiazol-2-yl)-3-(hydroxymethyl)azetidine-1-carboxamide]	6.86	6.14
CC(C)(c1ccc(Br)cc1)c1csc(NC(=O)NCc2cnc(N3CCNCC3)c(F)c2)n1 [Example A038, 1-(4-(2-(4-bromophenyl)propan-2-yl)thiazol-2-yl)-3-((5-fluoro-6-(piperazin-1-yl)pyridin-3-yl)methyl)urea]	7.52	5.78
C#CC(C)(c1ccc(Cl)cc1)c1csc(NC(=O)N2CC(CN3CCNCC3)C2)n1 (centres unmarked) [Example A259, N-(4-(2-(4-chlorophenyl)but-3-yn-2-yl)thiazol-2-yl)-3-(piperazin-1-ylmethyl)azetidine-1-carboxamide]	7.32	6.36
C#CC(C)(c1ccc(Cl)cc1)c1csc(NC(=O)N2CC(CN3CCC(N)CC3)C2)n1 (centres unmarked) [Example A263, 3-((4-aminopiperidin-1-yl)methyl)-N-(4-(2-(4-chlorophenyl)but-3-yn-2-yl)thiazol-2-yl)azetidine-1-carboxamide]	7.41	5.84
C#C[C@](C)(c1ccc(F)cc1)c1csc(NC(=O)NCCO)n1 (stereo in doubt) [Example A282, 1-(4-(2-(4-fluorophenyl)but-3-yn-2-yl)thiazol-2-yl)-3-(2-hydroxyethyl)urea]	5.67	5.11
COc1ccc(C(C)(C)c2csc(NC(=O)NCc3cc(F)c(N4CCNCC4)c(F)c3)n2)cc1 [Example A040, 1-(3,5-difluoro-4-(piperazin-1-yl)benzyl)-3-(4-(2-(4-methoxyphenyl)propan-2-yl)thiazol-2-yl)urea]	7.35	6.30
COc1ccc(C(C)(C)c2csc(NC(=O)NCc3ccc(C(=O)N4CCC(N)C4)nc3)n2)cc1 (centres unmarked) [Example A217, 1-((6-(3-aminopyrrolidine-1-carbonyl)pyridin-3-yl)methyl)-3-(4-(2-(4-methoxyphenyl)propan-2-yl)thiazol-2-yl)urea]	7.25	4.49
COc1ccc(C(C)(C)c2csc(NC(=O)NCCCN3CCN(C)CC3)n2)cc1 [Example A142, 1-(4-(2-(4-methoxyphenyl)propan-2-yl)thiazol-2-yl)-3-(3-(4-methylpiperazin-1-yl)propyl)urea]	6.74	5.88
CC(C)(c1ccc(Br)cc1)c1csc(NC(=O)NCc2cnc(N3CCNCC3)nc2)n1 [Example A088, 1-(4-(2-(4-bromophenyl)propan-2-yl)thiazol-2-yl)-3-((2-(piperazin-1-yl)pyrimidin-5-yl)methyl)urea compound with methane (1:1)]	7.89	5.84
COCCNC(=O)Nc1nc(C(C)(C)c2ccc(OC)cc2)cs1 [Example A110, 1-(2-methoxyethyl)-3-(4-(2-(4-methoxyphenyl)propan-2-yl)thiazol-2-yl)urea]	6.71	6.03
COc1ccc(C(C)(C)c2csc(NC(=O)NCCCN3CCNC(C)C3)n2)cc1 (centres unmarked) [Example A228, 1-(4-(2-(4-methoxyphenyl)propan-2-yl)thiazol-2-yl)-3-(3-(3-methylpiperazin-1-yl)propyl)urea]	7.00	5.41
COc1ccc(C(C)(C)c2csc(NC(=O)NCc3ccc(CO)cc3)n2)cc1 [Example A140, 1-(4-(hydroxymethyl)benzyl)-3-(4-(2-(4-methoxyphenyl)propan-2-yl)thiazol-2-yl)urea]	6.88	5.26
CCC(C)(c1ccc(OC)cc1)c1csc(NC(=O)NC(C)c2ccc(N3CCNCC3)cc2)n1 (centres unmarked) [Example A076, 1-(4-(2-(4-methoxyphenyl)butan-2-yl)thiazol-2-yl)-3-(1-(4-(piperazin-1-yl)phenyl)ethyl)urea]	6.83	5.35
COc1ccc(C(C)(C)c2csc(NC(=O)NCCCS(C)(=O)=O)n2)cc1 [Example A136, 1-(4-(2-(4-methoxyphenyl)propan-2-yl)thiazol-2-yl)-3-(3-(methylsulfonyl)propyl) urea]	6.68	6.19
COc1ccc(C(C)(C)c2csc(NC(=O)NCc3cnc(N4CCC(C(N)=O)CC4)nc3)n2)cc1 [Example A215, 1-(5-((3-(4-(2-(4-methoxyphenyl)propan-2-yl)thiazol-2-yl)ureido)methyl)pyrimi-din-2-yl)piperidine-4-carboxamide]	6.82	5.66
CC(C)(c1ccc(Br)cc1)c1csc(NC(=O)NCc2cc(N3CCNCC3)ncn2)n1 [Example A094, 1-(4-(2-(4-bromophenyl)propan-2-yl)thiazol-2-yl)-3-((6-(piperazin-1-yl)pyrimidin-4-yl)methyl)urea]	7.14	5.89
